Read-outs that look alike come from different tables or passages of the source.
How the values were obtained:
JAK2 JH1 WT (T842-G1132) = target: T1, JAK2 JH1 WT (T842-G1132) (Homo sapiens, UniProt O60674); experiment: Surface Plasmon Resonance (SPR) binding assay, JAK2 JH1 domain
T1 construct: *JAK2 JH1 WT (T842-G1132) N-His60-avi-TEV; His6 (N); TEV cleavage site (N); purchased Biortus
Experimental: Selected compounds of the present disclosure were tested in a Surface Plasmon Resonance (SPR) Assay to measure their binding kinetics and affinity for proteins of interest.
Prepare buffer: 50 mM HEPES pH 7.5, 150 mM NaCl, 0.05% (v/v) Tween, and 10% (v/v) glycerol were combined and pH was adjusted to 7.5, then filtered. 5 mM DTT, was added, and buffer without DMSO was reserved for compound resuspension. 2% (v/v) DMSO was added for assay buffer, and separately 1% DMSO was used to make buffer for resuspending compounds.
Prepare compounds: Using a Bravo liquid handler, 99 μL of 1% (v/v) DMSO assay buffer was added to 1 μL compounds in DMSO.
Run 8K Method: Biotin CAPture (CAP) chip surface was regenerated prior to run by: Inserting CAP chip into Biacore 8K, prime machine with assay buffer with 2% (v/v) DMSO; Setting instrument temperature to 20° C.; Conditioning surface with NaOH/GdnHCl reagents from CAP chip kit (60 seconds, 10 μL/min); and Capturing oligo-Streptavidin (SA) reagent from CAP kit (600 seconds, 1 μL/min), expected capture ˜2500 RU. JAK2 JH1 or JH2 protein was immobilized by preparing a sample of 0.5 uM JH1 or 0.4 uM JH2 protein diluted in assay buffer without DMSO and supplemented with 10 uM of a selected compound of the invention as a stabilizer (370 seconds, 5 uL/min), expected capture ˜1000 RU. Remaining biotin sites on SA were blocked with 1 uM biotin (30 seconds, 20 uL/min), then equilibrated for 1800 seconds at 100 uL/min. Compounds being assayed were run in single cycle kinetics: 4 doses with a top concentration of 5 uM (JH1) or 500 nM (JH2), dilution factor of 3, at 20° C., for a contact time of 60 seconds, and a dissociation time of 300 seconds (JH1) or 1200 seconds (JH2), at a flow rate of 30 uL/min. The surface was completely regenerated after each compound is run, and JH1 or JH2 protein was immobilized fresh prior to each new compound. Data were fitted kinetically with 1:1 binding model using Biacore Insight Evaluation Software.

[1] = target: T2, JAK2 JH2 WT (V536-D812) [W659A, W777A, F794H solubilizing mutations] (Homo sapiens, UniProt O60674, F794H/W659A/W777A); experiment: Surface Plasmon Resonance (SPR) binding assay, JAK2 JH2 domain
T2 construct: **JAK2 JH2 WT (V536-D812) [W659A, W777A, F794H solubilizing mutations]; C-thrombin-avi-His6; thrombin cleavage site (C); His6 (C); purchased Biortus
Outline: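 Kinetics came from 1:1 fits of single-cycle runs at 20 °C: four 3-fold dilutions from 5 uM for JH1 or 500 nM for JH2, 60 s association, and 300 s or 1200 s dissociation respectively. Protein was freshly captured per compound in the presence of 10 uM stabilizer compound, with running buffer of pH 7.5 HEPES/NaCl/glycerol/DTT plus 2% DMSO.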

[2] = test system: TF1 JAK2 V617F STAT3 reporter; experiment: Cellular TF1 STAT3 assay (luciferase reporter), JAK2 V617F; type: cell-based; settings: read-out: Cell PD-TF1 JAK2 V617F STAT3 (IC50)
Outline: (§1)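 Measured in TF1 cells with mutant JAK2 V617F and STAT-responsive luciferase: 18-20 h compound exposure at 37 °C, then ONE-glo luminescence.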

[3] = test system: TF1 JAK2 V617F STAT5 reporter; experiment: Cellular TF1 STAT5 assay (luciferase reporter), JAK2 V617F; type: cell-based; settings: read-out: Cell PD TF1 V617F STAT5 (IC50)
Outline: as §1

[4] = Homo sapiens, TF-1, TF1 cells, JAK2 V617F

T1 sequence (O60674 842-1132): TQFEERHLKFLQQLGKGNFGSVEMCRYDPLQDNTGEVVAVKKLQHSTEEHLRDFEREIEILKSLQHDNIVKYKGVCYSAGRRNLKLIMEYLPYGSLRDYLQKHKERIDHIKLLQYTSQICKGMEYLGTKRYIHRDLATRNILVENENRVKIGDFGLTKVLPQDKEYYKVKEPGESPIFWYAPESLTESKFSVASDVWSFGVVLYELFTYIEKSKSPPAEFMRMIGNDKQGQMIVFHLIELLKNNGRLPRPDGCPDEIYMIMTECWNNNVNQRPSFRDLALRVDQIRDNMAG
T2 sequence (O60674 536-812 W659A/W777A/F794H): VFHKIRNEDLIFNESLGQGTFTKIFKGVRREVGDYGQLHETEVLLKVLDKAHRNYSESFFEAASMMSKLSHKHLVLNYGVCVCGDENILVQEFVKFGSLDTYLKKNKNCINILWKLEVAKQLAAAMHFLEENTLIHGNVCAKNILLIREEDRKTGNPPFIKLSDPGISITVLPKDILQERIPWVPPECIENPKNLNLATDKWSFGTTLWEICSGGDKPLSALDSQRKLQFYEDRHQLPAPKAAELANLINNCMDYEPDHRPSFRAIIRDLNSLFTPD

Compound	Kd (JAK2 JH1 WT (T842-G1132); SPR, JAK2 JH1 domain)	Kd ([1]; SPR, JAK2 JH2 domain)	IC50 ([2]; TF1 JAK2 V617F)	IC50 ([3]; TF1 JAK2 V617F)	Kd (JAK2 JH1 WT (T842-G1132))	Kd [1]	IC50 [2, 4]	IC50 [3, 4]
CNC(=O)c1nnc(NC(=O)C2CC2)cc1Nc1cccc(-c2cnn(C3CN(Cc4cccc(C#N)n4)C3)c2)c1OC [Compound 147]	500 to 5000 nM	0.01 to 10 nM	50 to 500 nM	50 to 500 nM				
CNC(=O)c1nnc(NC(=O)C2CC2)cc1Nc1cccc(-c2ccc(C(=O)NCc3cccn(C)c3=O)nc2)c1OC [Compound 4]	5000 to 100000 nM	0.01 to 10 nM	500 to 5000 nM	500 to 5000 nM				
CNC(=O)c1nnc(NC(=O)C2CC2)cc1Nc1cccc(-c2ncc(NC(=O)Cc3cccn(C)c3=O)cn2)c1OC [Compound 6]	500 to 5000 nM	0.01 to 10 nM	5000 to 100000 nM	5000 to 100000 nM				
CNC(=O)c1nnc(NC(=O)C2CC2)cc1Nc1cccc(-c2ccc(C(=O)NCc3cccn(C)c3=O)c(C)c2)c1OC [Compound 10]	5000 to 100000 nM	0.01 to 10 nM	500 to 5000 nM	500 to 5000 nM				
CNC(=O)c1nnc(NC(=O)C2CC2)cc1Nc1cccc(-c2ccc(C(=O)N(C)Cc3cccnc3)nc2)c1OC [Compound 30]	5000 to 100000 nM	0.01 to 10 nM	50 to 500 nM	50 to 500 nM				
CNC(=O)c1nnc(NC(=O)C2CC2)cc1Nc1cccc(-c2cnn(C3CN(C(C)=O)C3)c2)c1OC [Compound 301]					5000 to 100000 nM	50 to 500 nM	5000 to 100000 nM	5000 to 100000 nM
CNC(=O)c1nnc(NC(=O)C2CC2)cc1Nc1cccc(-c2cn(C3CN(Cc4cccc(C)n4)C3)nn2)c1OC [Compound 151]	500 to 5000 nM	0.01 to 10 nM	50 to 500 nM	50 to 500 nM				
CNC(=O)c1nnc(NC(=O)C2CC2)cc1Nc1cccc(-c2ccc(C(=O)N(C)Cc3ncc(CN(C)C)s3)nc2)c1OC [Compound 271]						0.01 to 10 nM	500 to 5000 nM	500 to 5000 nM
COc1c(Nc2cc(NC(=O)C3CC3)nn3cc(C)nc23)cccc1-c1cnn(C2CN(Cc3ccccn3)C2)c1 [Compound 204]						0.01 to 10 nM	500 to 5000 nM	500 to 5000 nM
CNC(=O)c1nnc(NC(=O)C2CC2)cc1Nc1cccc(-c2cc(C3CN(Cc4ccccn4)C3)nn2C)c1OC [Compound 189]		10 to 50 nM	5000 to 100000 nM	5000 to 100000 nM				
CNC(=O)c1nnc(NC(=O)C2CC2)cc1Nc1cccc(-c2cnn(C3CN([C@@H](C)c4cccc(C#N)n4)C3)c2)c1OC (single isomer, unassigned) [Compound 286]						0.01 to 10 nM	50 to 500 nM	50 to 500 nM
CNC(=O)c1nnc(NC(=O)C2CC2)cc1Nc1cccc(-c2ccc(C(=O)N(C)Cc3nc(CN(C)C)cs3)nc2)c1OC [Compound 253]						10 to 50 nM	5000 to 100000 nM	500 to 5000 nM
CNC(=O)c1nnc(NC(=O)C2CC2)cc1Nc1cccc(-c2cc(C3CN(Cc4cccc(C#N)n4)C3)nn2C)c1OC [Compound 191]		10 to 50 nM	5000 to 100000 nM	5000 to 100000 nM				
CNC(=O)c1nnc(NC(=O)C2CC2)cc1Nc1cccc(-c2cnn(C3CN(Cc4cccc5nncn45)C3)c2)c1OC [Compound 313]						10 to 50 nM	500 to 5000 nM	500 to 5000 nM
CNC(=O)c1nnc(NC(=O)C2CC2)cc1Nc1cccc(-c2cnn(C3CN(Cc4cccc(F)c4F)C3)c2)c1OC [Compound 129]		10 to 50 nM	500 to 5000 nM	500 to 5000 nM				
CNC(=O)c1nnc(NC(=O)C2CC2)cc1Nc1cccc(-c2cnn(C3CC(Oc4cccc(C#N)n4)C3)c2)c1OC (stereo not shown) [Compound 372]						0.01 to 10 nM	500 to 5000 nM	500 to 5000 nM
C=C(C)c1cccc(CN2CC(n3cc(-c4cccc(Nc5cc(NC(=O)C6CC6)nnc5C(=O)NC)c4OC)cn3)C2)n1 [Compound 367]						0.01 to 10 nM	50 to 500 nM	50 to 500 nM
CNC(=O)c1nnc(NC(=O)C2CC2)cc1Nc1cccc(-c2ccc(C(=O)N(C)C[C@@H]3CCCC3(F)F)cc2)c1OC (single isomer, unassigned) [Compound 208]						0.01 to 10 nM	5000 to 100000 nM	5000 to 100000 nM
CNC(=O)c1nnc(NC(=O)C2CC2)cc1Nc1cccc(-c2cn(C3CN(C(C)C)C3)nc2C(C)(C)O)c1OC [Compound 338]						50 to 500 nM	500 to 5000 nM	5000 to 100000 nM
CNC(=O)c1nnc(NC(=O)C2CC2)cc1Nc1cccc(-c2ccc(C(=O)N(C)C[C@H]3CCCC3(F)F)cc2)c1OC (single isomer, unassigned) [Compound 206]						10 to 50 nM	5000 to 100000 nM	5000 to 100000 nM
CCOc1ccccc1CN(C)C(=O)c1ccc(-c2cccc(Nc3cc(NC(=O)C4CC4)nnc3C(=O)NC)c2OC)cn1 [Compound 83]		0.01 to 10 nM	500 to 5000 nM	500 to 5000 nM				
CNC(=O)c1nnc(NC(=O)C2CC2)cc1Nc1cccc(-c2cn(C3CN(Cc4cccc(C#N)n4)C3)nc2C(C)(C)O)c1OC [Compound 339]						50 to 500 nM	5000 to 100000 nM	5000 to 100000 nM
CNC(=O)c1nnc(NC(=O)C2CC2)cc1Nc1cccc(-c2cnn(C3CN(Cc4cccc(Br)n4)C3)c2)c1OC [Compound 201]						0.01 to 10 nM	50 to 500 nM	50 to 500 nM

More lines, now with the values ahead:

Kd (JAK2 JH1 WT (T842-G1132); SPR, JAK2 JH1 domain)	Kd ([1]; SPR, JAK2 JH2 domain)	IC50 ([2]; TF1 JAK2 V617F)	IC50 ([3]; TF1 JAK2 V617F)	Kd (JAK2 JH1 WT (T842-G1132))	Kd [1]	IC50 [2, 4]	IC50 [3, 4]	Compound
5000 to 100000 nM	0.01 to 10 nM	50 to 500 nM	50 to 500 nM					CNC(=O)c1nnc(NC(=O)C2CC2)cc1Nc1cccc(-c2cnc(C(=O)N(C)Cc3cc(C#N)ccn3)cn2)c1OC [Compound 37]
5000 to 100000 nM	0.01 to 10 nM	500 to 5000 nM	500 to 5000 nM					CNC(=O)c1nnc(NC(=O)C2CC2)cc1Nc1ccc(C)c(-c2cnc(C(=O)N(C)Cc3ccccn3)c(F)c2)c1OC [Compound 43]
5000 to 100000 nM	0.01 to 10 nM	500 to 5000 nM	5000 to 100000 nM					CNC(=O)c1nnc(NC(=O)C2CC2)cc1Nc1cccc(-c2ccc(C(=O)N(C)Cc3nncs3)nc2)c1OC [Compound 146]
5000 to 100000 nM	0.01 to 10 nM	50 to 500 nM	50 to 500 nM					[2H]C([2H])([2H])NC(=O)c1nnc(NC(=O)C2CC2)cc1Nc1cccc(-c2ccc(C(=O)N(C)Cc3cc(C#N)ccn3)nc2)c1OC [Compound 61]
5000 to 100000 nM	0.01 to 10 nM	500 to 5000 nM	500 to 5000 nM					CNC(=O)c1nnc(NC(=O)C2CC2)cc1Nc1cccc(-c2cnc(C(=O)N(C)Cc3ccn(C)n3)c(C#N)c2)c1OC [Compound 92]
5000 to 100000 nM	0.01 to 10 nM	500 to 5000 nM	500 to 5000 nM					CNC(=O)c1nnc(NC(=O)C2CC2)cc1Nc1cccc(-c2ccc(C(=O)N(C)Cc3cc(C#N)ccn3)cc2)c1OC [Compound 11]
					0.01 to 10 nM	50 to 500 nM	50 to 500 nM	CNC(=O)c1nnc(NC(=O)C2CC2)cc1Nc1ccc(C)c(-c2cnc(C(=O)N(C)Cc3cc(C(F)F)ccn3)c(F)c2)c1OC [Compound 289]
	0.01 to 10 nM	50 to 500 nM	50 to 500 nM					CNC(=O)c1nnc(NC(=O)C2CC2)cc1Nc1cc(F)cc(-c2ccc(C(=O)N(C)Cc3ccn(C)n3)nc2)c1OC [Compound 97]
					0.01 to 10 nM	50 to 500 nM	500 to 5000 nM	CNC(=O)c1nnc(NC(=O)C2CC2)cc1Nc1cccc(-c2ccc(C(=O)N(C)Cc3nccc(C#N)n3)nc2)c1OC [Compound 261]
					0.01 to 10 nM	5000 to 100000 nM	5000 to 100000 nM	CNC(=O)c1nnc(NC(=O)C2CC2)cc1Nc1cccc(-c2ccc(C(=O)N(C)Cc3cc(P(C)(C)=O)ccn3)nc2)c1OC [Compound 380]
